From ChEMBL document CHEMBL1909046, “DrugMatrix in vitro pharmacology data”

How the values were obtained:
[1] = target: C-C chemokine receptor type 5 (Homo sapiens, UniProt P51681); assay type: cell membranes, HEK293, Membrane; settings: hek293; note: in other assays of this panel Not Active means under 50% inhibition at 10 µM
[2] = target: T1, Cholecystokinin receptor type A (Homo sapiens, UniProt P32238); assay type: cell membranes, Membrane; settings: 1321-n1; note: in other assays of this panel Not Active means under 50% inhibition at 10 µM
T1 sequence (P32238 whole entry): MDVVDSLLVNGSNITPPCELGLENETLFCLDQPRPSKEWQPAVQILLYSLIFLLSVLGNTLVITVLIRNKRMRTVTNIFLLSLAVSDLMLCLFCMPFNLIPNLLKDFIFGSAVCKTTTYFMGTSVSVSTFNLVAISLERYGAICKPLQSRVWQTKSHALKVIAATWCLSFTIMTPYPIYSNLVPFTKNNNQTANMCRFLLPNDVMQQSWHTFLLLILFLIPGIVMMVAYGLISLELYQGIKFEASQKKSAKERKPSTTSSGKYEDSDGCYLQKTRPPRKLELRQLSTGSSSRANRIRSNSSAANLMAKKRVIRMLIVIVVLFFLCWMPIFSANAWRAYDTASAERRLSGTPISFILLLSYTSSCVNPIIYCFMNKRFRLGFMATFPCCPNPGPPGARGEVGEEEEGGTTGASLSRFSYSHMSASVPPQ

[3] = target: D(3) dopamine receptor (Homo sapiens, UniProt P35462); experiment: DRUGMATRIX: Dopamine D3 radioligand binding (ligand: [3H] Spiperone); assay type: cell membranes, CHO, Membrane
[4] = DRUGMATRIX: Leukotriene, BLT (LTB4) radioligand binding (ligand: [3H]LTB4); assay type: cell membranes, Membrane; settings: u-937; Not Active = under 50% inhibition at 10 µM
[5] = DRUGMATRIX: Phosphodiesterase PDE4 enzyme inhibition (substrate: [3H]cAMP + cAMP); settings: u-937; Not Active = under 50% inhibition at 10 µM
[6] = target: T2, Neutrophil elastase (Homo sapiens, UniProt P08246); assay type: tissue-based;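 note: inhibition of neutrophil elastase enzyme activity, measured with a p-nitroanilide-linked peptide substrate; in other assays of this panel Not Active means under 50% inhibition at 10 µM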
T2 sequence (P08246 whole entry): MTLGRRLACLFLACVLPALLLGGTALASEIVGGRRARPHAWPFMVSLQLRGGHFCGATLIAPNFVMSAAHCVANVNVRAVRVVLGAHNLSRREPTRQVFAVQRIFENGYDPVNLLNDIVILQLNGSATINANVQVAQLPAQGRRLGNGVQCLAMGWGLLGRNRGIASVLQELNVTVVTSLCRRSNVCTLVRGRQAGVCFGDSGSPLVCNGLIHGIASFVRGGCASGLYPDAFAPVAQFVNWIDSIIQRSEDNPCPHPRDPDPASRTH

[7] = target: T3, Interstitial collagenase (Homo sapiens, UniProt P03956); experiment: biochemical; assay type: tissue-based, Rheumatoid synovial fibroblasts;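 note: MMP-1 enzyme inhibition assay using a peptide substrate; in other assays of this panel Not Active means under 50% inhibition at 10 µM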
T3 sequence (P03956 whole entry): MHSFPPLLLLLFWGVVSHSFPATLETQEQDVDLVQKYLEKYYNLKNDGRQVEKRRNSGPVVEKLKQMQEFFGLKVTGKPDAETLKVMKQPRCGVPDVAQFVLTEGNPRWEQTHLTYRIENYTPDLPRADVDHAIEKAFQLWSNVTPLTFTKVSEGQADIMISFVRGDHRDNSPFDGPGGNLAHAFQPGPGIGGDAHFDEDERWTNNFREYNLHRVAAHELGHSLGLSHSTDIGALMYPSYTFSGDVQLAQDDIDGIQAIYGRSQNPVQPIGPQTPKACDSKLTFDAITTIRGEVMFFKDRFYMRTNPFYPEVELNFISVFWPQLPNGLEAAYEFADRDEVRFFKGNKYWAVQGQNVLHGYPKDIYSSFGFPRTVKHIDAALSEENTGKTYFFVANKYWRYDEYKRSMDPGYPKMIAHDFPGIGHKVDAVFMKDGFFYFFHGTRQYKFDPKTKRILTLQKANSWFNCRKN

D(3) dopamine receptor, sequence (P35462 whole entry): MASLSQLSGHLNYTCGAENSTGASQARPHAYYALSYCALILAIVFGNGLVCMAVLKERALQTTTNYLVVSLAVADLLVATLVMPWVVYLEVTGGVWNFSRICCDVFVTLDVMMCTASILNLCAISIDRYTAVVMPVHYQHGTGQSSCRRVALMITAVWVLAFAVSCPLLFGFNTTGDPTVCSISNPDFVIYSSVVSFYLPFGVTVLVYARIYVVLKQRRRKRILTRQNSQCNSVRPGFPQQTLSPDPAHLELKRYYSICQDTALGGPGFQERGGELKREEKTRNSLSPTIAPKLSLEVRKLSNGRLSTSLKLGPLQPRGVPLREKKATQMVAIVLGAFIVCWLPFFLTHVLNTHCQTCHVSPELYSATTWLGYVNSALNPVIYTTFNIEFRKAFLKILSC
C-C chemokine receptor type 5, sequence (P51681 whole entry): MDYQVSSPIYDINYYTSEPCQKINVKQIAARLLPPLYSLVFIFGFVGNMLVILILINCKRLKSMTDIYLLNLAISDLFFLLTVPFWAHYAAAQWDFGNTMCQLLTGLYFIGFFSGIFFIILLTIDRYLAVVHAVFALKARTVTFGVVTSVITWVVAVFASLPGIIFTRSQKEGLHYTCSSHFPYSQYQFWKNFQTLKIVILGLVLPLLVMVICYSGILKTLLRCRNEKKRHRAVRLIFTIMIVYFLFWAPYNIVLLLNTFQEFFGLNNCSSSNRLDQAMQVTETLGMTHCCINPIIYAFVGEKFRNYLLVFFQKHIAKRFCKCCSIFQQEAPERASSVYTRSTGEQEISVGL

Molecule | IC50 [1] | IC50 [2] | IC50 ([3]; cho) | IC50 [4] | Ki [4] | IC50 [5] | Ki [5] | IC50 [6] | IC50 [7] | IC50 ([3]; read-out: IC50) [nM] | Ki ([3]; read-out: Ki) [nM] | Ki [1] | Ki [2] | Ki ([3]; cho) | Ki [6] | Ki [7]
CC(C)(C#N)c1cc(Cn2cncn2)cc(C(C)(C)C#N)c1 [ANASTROZOLE] | Not Active | Not Active | Not Active | Not Active | Not Active | Not Active | Not Active | Not Active | Not Active | – | – | – | – | – | – | –
CC12CCC(CC1=O)C2(C)C (configuration not stated) [CAMPHOR] | Not Active | Not Active | Not Active | Not Active | Not Active | Not Active | Not Active | Not Active | Not Active | – | – | – | – | – | – | –
CC12CCC(CC1)C(C)(C)O2 [EUCALYPTOL] | Not Active | Not Active | Not Active | Not Active | Not Active | Not Active | Not Active | Not Active | Not Active | – | – | – | – | – | – | –
Cc1ccnc2c1NC(=O)c1cccnc1N2C1CC1 [NEVIRAPINE] | Not Active | Not Active | Not Active | Not Active | Not Active | Not Active | Not Active | Not Active | Not Active | – | – | – | – | – | – | –
Clc1cc(Cl)c(OCC#CI)cc1Cl [HALOPROGIN] | Not Active | Not Active | – | Not Active | Not Active | Not Active | Not Active | Not Active | Not Active | 488 | 166 | – | – | – | – | –
Oc1ccccc1 [PHENOL] | Not Active | Not Active | Not Active | Not Active | Not Active | Not Active | Not Active | Not Active | Not Active | – | – | – | – | – | – | –
CCCCCCNC(=O)n1cc(F)c(=O)[nH]c1=O [CARMOFUR] | Not Active | Not Active | Not Active | Not Active | Not Active | Not Active | Not Active | Not Active | Not Active | – | – | – | – | – | – | –
Nc1ccc(C(=O)O)c(O)c1 [AMINOSALICYLIC ACID] | Not Active | Not Active | Not Active | Not Active | Not Active | Not Active | Not Active | Not Active | Not Active | – | – | – | – | – | – | –
COc1cc(NC(C)CCCN)c2ncccc2c1 (configuration not stated) [PRIMAQUINE] | Not Active | Not Active | Not Active | Not Active | Not Active | Not Active | Not Active | Not Active | Not Active | – | – | – | – | – | – | –
Cc1cc(C(C)(C)C)c(O)c(C)c1CC1=NCCN1 [OXYMETAZOLINE] | Not Active | Not Active | Not Active | Not Active | Not Active | Not Active | Not Active | Not Active | Not Active | – | – | – | – | – | – | –
O=c1[nH]cnc2c1ncn2[C@H]1CC[C@@H](CO)O1 [DIDANOSINE] | Not Active | Not Active | Not Active | Not Active | Not Active | Not Active | Not Active | Not Active | Not Active | – | – | – | – | – | – | –
CC(=O)[C@]1(O)Cc2c(O)c3c(c(O)c2[C@@H](O[C@H]2C[C@H](N)[C@H](O)[C@H](C)O2)C1)C(=O)c1ccccc1C3=O [IDARUBICIN] | Not Active | Not Active | Not Active | Not Active | Not Active | Not Active | Not Active | Not Active | Not Active | – | – | – | – | – | – | –
COC(=O)Nc1nc2ccc(Sc3ccccc3)cc2[nH]1 [FENBENDAZOLE] | Not Active | Not Active | Not Active | Not Active | Not Active | Not Active | Not Active | Not Active | Not Active | – | – | – | – | – | – | –
CC(C)(c1ccc(O)cc1)c1ccc(O)cc1 [BISPHENOL A] | Not Active | Not Active | Not Active | Not Active | Not Active | Not Active | Not Active | Not Active | Not Active | – | – | – | – | – | – | –
C=C(Cl)Cl [1,1-DICHLOROETHENE] | Not Active | Not Active | Not Active | Not Active | Not Active | Not Active | Not Active | Not Active | Not Active | – | – | – | – | – | – | –
O=C(O)CCc1nc(-c2ccccc2)c(-c2ccccc2)o1 [OXAPROZIN] | Not Active | Not Active | Not Active | Not Active | Not Active | Not Active | Not Active | Not Active | Not Active | – | – | – | – | – | – | –
NCC(CC(=O)O)c1ccc(Cl)cc1 (configuration not stated) [BACLOFEN] | Not Active | Not Active | Not Active | Not Active | Not Active | Not Active | Not Active | Not Active | Not Active | – | – | – | – | – | – | –
CC[C@H]1OC(=O)[C@H](C)[C@@H](O[C@H]2C[C@@](C)(OC)[C@@H](O)[C@H](C)O2)[C@H](C)[C@@H](O[C@@H]2O[C@H](C)C[C@H](N(C)C)[C@H]2O)[C@](C)(O)C[C@@H](C)C(=O)[C@H](C)[C@@H](O)[C@]1(C)O [ERYTHROMYCIN] | Not Active | Not Active | Not Active | Not Active | Not Active | Not Active | Not Active | Not Active | Not Active | – | – | – | – | – | – | –
C=CCO [ALLYL ALCOHOL] | Not Active | Not Active | Not Active | Not Active | Not Active | Not Active | Not Active | Not Active | Not Active | – | – | – | – | – | – | –
COC(=O)C[C@](O)(CCC(C)(C)O)C(=O)O[C@@H]1C(OC)=C[C@]23CCCN2CCc2cc4c(cc2[C@H]13)OCO4 [HARRINGTONINE] | Not Active | Not Active | Not Active | Not Active | Not Active | Not Active | Not Active | Not Active | Not Active | – | – | – | – | – | – | –
CHROMIC CHLORIDE | Not Active | Not Active | Not Active | Not Active | Not Active | Not Active | Not Active | Not Active | Not Active | – | – | Not Active | Not Active | Not Active | Not Active | Not Active
C#C[C@]1(O)CC[C@H]2[C@@H]3CCC4=CC(=O)CC[C@@H]4[C@H]3CC[C@@]21C [NORETHINDRONE] | Not Active | Not Active | Not Active | Not Active | Not Active | Not Active | Not Active | Not Active | Not Active | – | – | – | – | – | – | –
O=C1CN(/N=C/c2ccc([N+](=O)[O-])o2)C(=O)N1 [NITROFURANTOIN] | Not Active | Not Active | Not Active | Not Active | Not Active | Not Active | Not Active | Not Active | Not Active | – | – | – | – | – | – | –
c1ccc2c(c1)Nc1ccccc1S2 [PHENOTHIAZINE] | Not Active | Not Active | Not Active | Not Active | Not Active | Not Active | Not Active | Not Active | Not Active | – | – | – | – | – | – | –
